Legend:
GPR15 expression = assay: In vitro stimulation of T cells to examine GFP (GPR15 reporter) induction; format: cell-based, mouse; conditions: various concentration of retinoic acid with IL-2 only, 3 days, CD4+ Tnaive and Tregs from Gpr15gfp/+ Foxp3ires-mrfp mice
Method: All T cell cultures were done in RPMI-10. CD4^+ Tnaive (CD62L^hiCD44^loCD25^−mRFP^− GFP^−), Tregs with naive phenotype (CD62L^hiCD44^loCD25^+mRFP^+ GFP^−), Tmemory (CD62L^loCD44^hiCD25^−mRFP^− GFP^−), and Tregs with memory phenotype (CD62L^loCD44^hiCD25^+mRFP^+ GFP^−) were sorted from Gpr15^gfp/+ Foxp3^ires-mrfp mice. Sorted cells were stimulated with 0.25 μg/ml αCD3ε (145-2c11, ATCC) and 1 μg/ml of αCD28 antibodies (37.51, eBiosciences) cross-linked by plate-bound α-hamster IgG in the presence of human IL-2 (100 U/ml) alone, or additionally with IL-21 (10 ng/ml, R&D systems) or IL-6 (20 ng/ml, Peprotech), or IL-27 (20 ng/ml, eBioscience) in the presence of varying concentrations of human TGF-β1 (αTGFβ blocking antibody [R&D systems], or 0, 0.5 ng/ml, or 5 ng/ml TGF-β1 [Peprotech]) for 3 days. The same conditions were used for retinoic acid (Sigma-Aldrich) treatment with IL-2 only.

[1] = target: T1, inducible caspase 9 (iCasp9) (Homo sapiens, UniProt P55211+P62942, F37V); conditions: patients wherein GVHD developed; cited from earlier work
T1 construct: human caspase 9 (fusion partner in the same polypeptide)

[2] = test system: homing of T cells to the large intestine lamina propria (LILP); assay: Short-term competitive homing assay; format: in vivo, mouse; conditions: GPR15+ cells treated before transfer, co-transfer with untreated control-transduced cells
Method: The coding region of mouse GPR15 was cloned into the MSCV-IRES-Thy1.1 retroviral construct (38). Retroviruses were generated by transient transfection of Phoenix cells. CD4^+ CD62L^highCD44^lowCD25^− Tnaive cells were sorted by FACS Aria IIu (BD Biosciences) and stimulated with 0.25 μg/ml of αCD3ε (145-2c11, ATCC) and 1 μg/ml of αCD28 (37.51, eBiosciences) antibodies cross-linked by plate-bound α-hamster IgG (MP Biochemical) in RPMI-10. At day 1 and day 2 after stimulation, cells were transduced with retrovirus (spinning at 850 g for 2 h with 4 μg/ml of polybrene). CD4^+ Tnaive cells from B6. SJL-Ptprc^aPep3^b/BoyJ (The Jackson Laboratory) were used for transduction of Gpr15 and CD4^+ Tnaive cells from C57BL/6 were used for transduction of empty vector. At day 3, cells were washed and plated again only with 100 U/ml of IL-2. At day 5, live cells were harvested by lymphocyte-M (Cedarlane). The congenic cells were mixed at a 1:1 ratio and 20-30 million mixed cells in total were transferred intravenously into the recipient mice (C57BL/6). Migration of donor cells into each organ was determined at 10 h after transfer (unless specified) by flow cytometry analysis. All donor cells expressed THY1.1 and GPR15-expressing cells and control cells expressed CD45.1 and CD45.2, respectively. […]

T1 sequence (P62942+P55211 fused P62942:F37V): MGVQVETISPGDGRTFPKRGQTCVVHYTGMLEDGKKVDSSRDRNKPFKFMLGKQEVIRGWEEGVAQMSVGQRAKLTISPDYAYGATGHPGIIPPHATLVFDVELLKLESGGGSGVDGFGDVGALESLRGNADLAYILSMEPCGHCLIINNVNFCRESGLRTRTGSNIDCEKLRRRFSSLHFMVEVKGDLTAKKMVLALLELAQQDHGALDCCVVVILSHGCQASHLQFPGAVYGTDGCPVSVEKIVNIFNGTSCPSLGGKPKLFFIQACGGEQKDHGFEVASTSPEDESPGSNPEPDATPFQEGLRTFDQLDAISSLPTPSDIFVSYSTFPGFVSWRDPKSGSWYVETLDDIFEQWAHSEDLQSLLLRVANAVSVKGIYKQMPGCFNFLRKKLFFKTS

CC1=C(/C=C/C(C)=C/C=C/C(C)=C/C(=O)O)C(C)(C)CCC1 [Retinoic acid]
GPR15 induction (GFP reporter) (GPR15 expression): does not induce GPR15 expression | GPR15 induction (GFP reporter) (GPR15 expression; listed as RA): not induced

CC[C@H](C(=O)N1CCCC[C@H]1C(=O)O[C@H](CCc1ccc(OC)c(OC)c1)c1cccc(OCC(=O)NCCNC(=O)COc2cccc([C@@H](CCc3ccc(OC)c(OC)c3)OC(=O)[C@@H]3CCCCN3C(=O)[C@@H](CC)c3cc(OC)c(OC)c(OC)c3)c2)c1)c1cc(OC)c(OC)c(OC)c1 [AP1903]
elimination of the transplanted genetically modified T cells [1]: greater than 90%

pertussis toxin
enrichment of Gpr15-transduced cells in the LILP after treatment of the cells before transfer [2]: no longer enriched in the LILP
